The values below are quoted from earlier work in patent US7772207B2, “Combination of a CDK inhibitor and CS-682 or a metabolite thereof” (Cyclacel Limited, priority 2003, dated 2010).

The conditions of data set [1]: phase I, patients with a variety of cancers.

Take `CCCCCCCCCCCCCCCC(=O)Nc1ccn([C@@H]2O[C@H](CO)[C@@H](O)[C@@H]2C#N)c(=O)n1` [(I), 1-(2-C-cyano-2-dioxy-β-D-arabino-pentofuranosyl)-N^4-palmitoyl cytosine]: in data set [1], the dose limiting toxicity result is on record as “myelosuppression” and the tolerability result is “well tolerated”. In addition, in the data set with colon cancer (model of colon cancer), the anticancer activity result is recorded as “strong anticancer activity”. Besides, the “increasing survival and preventing the spread of colon cancer metastases to the liver, compared with gemcitabine or 5-FU” value with colon cancer (same model of colon cancer) is given as “superior to either gemcitabine or 5-FU”.
